For one test, the system named is rat. The settings on record: cited from earlier work.
For test [1], the system named is murine neuroblastoma Neuro2a cells. The test is described as follows: Intracellular ROS formation level (H2DCF-DA). It is filed as cell-based. The settings on record: 6-OHDA 25 µM alone. As to the method:
We estimated whether rHCIQ2c1 is able to inhibit reactive oxygen species (ROS) production. After incubation of Neuro2a cells with rHCIQ2c1 (up to 10 µM) and 6-OHDA (25 µM), ROS content was evaluated by measurement of dichlorofluorescin intensity.
The intracellular ROS level was detected using 2,7-dichlordihydrofluorescein diacetate (H2DCF-DA) solution (Molecular Probes, final concentration 10 µM). In this study, mouse neuroblastoma Neuro2a cells seeded on 96-well plates were washed twice with serum-free DMEM and thereafter incubated for 1 h in serum-free MEM medium in the presence of compounds in concentrations from 10 pM to 10 µM. Cell were treated with 6-OHDA (25 μM) for 30 min at 37 °C with 5% CO2. Followed by treatment with 6-OHDA, the cells were washed once with PBS. After washing with serum-free DMEM medium, the cells were loaded with H2DCF-DA for 30 min. The intensity of dichlorofluorescin fluorescence was measured with plate reader PHERAstar FS (BMG Labtech, Germany) at λex = 485 nm and λem = 518 nm. The cytoprotective effect of peptides and the increase in cell viability under their action was calculated as a percentage, taking the cell viability treated with 6-OHDA as 100%.

Regarding `Nc1ccncc1` [4-aminopyridine], in the test with rat, the “Effect on MPTP-induced neurodegeneration and rat behavioral disturbances” value is “suppresses MPTP-induced neurodegeneration and rat behavioral disturbances”.
Consider `NCCc1cc(O)c(O)cc1O` [6-OHDA, 6-hydroxydopamine, reference compound], for which the ROS level entry in test [1] is listed as “highest ROS level”.
